Assay results: patent US11236106B2, “Cycloalkane-1,3-diamine derivative” (Daiichi Sankyo Company, Limited, priority 2018, dated 2022)
Where a name gives a salt, the structure may show the parent alone. Read-outs that look alike come from different tables or passages of the source.

Target: T1, menin and MLL (menin, Flag tagged; biotinylated MLL1 peptide 1-46aa) (Homo sapiens, UniProt O00255)
T1 sequence (O00255 1-610): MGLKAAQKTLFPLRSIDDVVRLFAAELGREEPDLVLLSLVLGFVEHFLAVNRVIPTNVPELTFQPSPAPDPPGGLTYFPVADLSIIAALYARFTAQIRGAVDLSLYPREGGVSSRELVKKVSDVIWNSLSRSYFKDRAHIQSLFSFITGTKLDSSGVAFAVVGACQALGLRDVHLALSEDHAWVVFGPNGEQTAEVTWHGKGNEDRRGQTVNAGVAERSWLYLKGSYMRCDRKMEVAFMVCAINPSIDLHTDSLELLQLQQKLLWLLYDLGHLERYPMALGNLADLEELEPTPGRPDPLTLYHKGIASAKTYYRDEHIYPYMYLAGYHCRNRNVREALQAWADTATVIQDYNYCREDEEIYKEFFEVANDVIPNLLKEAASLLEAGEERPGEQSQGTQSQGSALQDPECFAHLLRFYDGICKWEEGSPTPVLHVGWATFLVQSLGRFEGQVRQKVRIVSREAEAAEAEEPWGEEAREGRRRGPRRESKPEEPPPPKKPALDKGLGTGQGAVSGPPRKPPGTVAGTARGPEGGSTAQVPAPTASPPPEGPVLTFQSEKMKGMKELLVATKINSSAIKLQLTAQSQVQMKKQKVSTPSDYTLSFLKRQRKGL
Test: biochemical

[1] = cell free IC50 (nM), 1 nM menin, 10 nM biotinylated MLL1 peptide, AlphaLISA
[2] = IC50, binding inhibitory activity between menin and MLL, AlphaLISA, 1 nM menin, 10 nM biotinylated MLL1 peptide

Procedure: Then, the fluorescence signal by AlphaLISA (registered trademark, PerkinElmer Co., Ltd.) was measured using a plate reader (PerkinElmer Co., Ltd., EnVisionXcite).

CN(c1ncnc2sc(CC(F)(F)F)cc12)[C@@H]1CC[C@H](NCc2cncs2)C1 [Example 36, (1R,3S)-N^1-methyl-N^3-[(1,3-thiazol-5-yl)methyl]-N^1-[6-(2,2,2-trifluoroethyl)thieno[2,3-d]pyrimidin-4-yl]cyclopentane-1,3-diamine hydrochloride]
IC50 [1]: 636 nM

CN(c1ncnc2sc(CC(F)(F)F)cc12)[C@H]1C[C@@H](NCc2ccc(-c3cncc4ccccc34)cc2)C[C@H]1O [Example 83, (1R,2S,4R)-4-({[4-(isoquinolin-4-yl)phenyl]methyl}amino)-2-{methyl[6-(2,2,2-trifluoroethyl)thieno[2,3-d]pyrimidin-4-yl]amino}cyclopentan-1-ol hydrochloride]
IC50 [2]: 4.9 nM

COc1cc(-c2ccc(CN[C@H]3CC[C@@H](N(C)c4ncnc5sc(CC(F)(F)F)cc45)C3)cc2)nnc1OC [Example 95, (1R,3S)-N^3-{[4-(5,6-dimethoxypyridazin-3-yl)phenyl]methyl}-N^1-methyl-N^1-[6-(2,2,2-(trifluoroethyl)thieno[2,3-d]pyrimidin-4-yl]cyclopentane-1,3-diamine hydrochloride]
IC50 [2]: 1.2 nM

CNc1nc(N(C)[C@H]2C[C@@H](NCc3ccc(-c4ccc(F)c(OC)c4F)cc3)C[C@H]2O)c2cc(CC(F)(F)F)sc2n1 [Example 87, (1R,2S,4R)-4-{[(2′,4′-difluoro-3′-methoxy[1,1′-biphenyl]-4-yl)methyl]amino}-2-{methyl[2-(methylamino)-6-(2,2,2-trifluoroethyl)thieno[2,3-d]pyrimidin-4-yl]amino}cyclopentan-1-ol hydrochloride]
IC50 [2]: 6.6 nM

COc1nc(N(C)[C@H]2C[C@@H](NCc3ccc(-c4cnc(S(C)(=O)=O)c(OC)c4)cc3)C[C@H]2O)c2cc(CC(F)(F)F)sc2n1 [Example 94, (1R,2S,4R)-4-[({4-[6-(methanesulfonyl)-5-methoxypyridin-3-yl]phenyl}methyl)amino]-2-{[2-methoxy-6-(2,2,2-trifluoroethyl)thieno[2,3-d]pyrimidin-4-yl](methyl)amino}cyclopentan-1-ol hydrochloride]
IC50 [2]: 2.1 nM

CN(c1ncnc2sc(CC(F)(F)F)cc12)[C@@H]1CC[C@H](NCc2ccc(-c3cnc4c(c3)OCCO4)cc2)C1 [Example 63, (1R,3S)-N^3-{[4-(2,3-dihydro[l,4]dioxino[2,3-b]pyridin-7-yl)phenyl]methyl}-N^1-methyl-N^1-[6-(2,2,2-trifluoroethyl)thieno[2,3-d]pyrimidin-4-yl]cyclopentane-1,3-diamine hydrochloride]
IC50 [2]: 19.9 nM

COc1nc(N(C)[C@H]2C[C@@H](NCc3ccc(-c4cnc(CO)c(OC)c4)cc3)C[C@H]2O)c2cc(CC(F)(F)F)sc2n1 [Example 112, (1R,2S,4R)-4-[({4-[6-(hydroxymethyl)-5-methoxypyridin-3-yl]phenyl}methyl)amino]-2-{[2-methoxy-6-(2,2,2-trifluoroethyl)thieno[2,3-d]pyrimidin-4-yl](methyl)amino}cyclopentan-1-ol hydrochloride]
IC50 [2]: 0.8 nM

CNc1nc(N(C)[C@H]2C[C@@H](NCc3ccc(-c4cnc(OC)c(OC)c4)cc3)C[C@@H]2OC)c2cc(CC(F)(F)F)sc2n1 [Example 24, N^4-[(1S,2S,4R)-4-({[4-(5,6-dimethoxypyridin-3-yl)phenyl]methyl}amino)-2-methoxycyclopentyl]-N^2,N^4-dimethyl-6-(2,2,2-trifluoroethyl)thieno[2,3-d]pyrimidine-2,4-diamine Hydrochloride]
IC50 [1]: 4.1 nM

COc1nc(N(C)[C@H]2C[C@@H](NCc3ccc(-c4cc(OC)c(Oc5ccccc5)nn4)cc3)C[C@H]2O)c2cc(CC(F)(F)F)sc2n1 [Example 114, (1R,2S,4R)-4-({[4-(5-methoxy-6-phenoxypyridazin-3-yl)phenyl]methyl}amino)-2-{[2-methoxy-6-(2,2,2-trifluoroethy)thieno[2,3-d]pyrimidin-4-yl](methyl)amino}cyclopentan-1-ol hydrochloride]
IC50: 1.5 nM
